{"source": "patent US8202904B2", "about": "“α-cyano-4-fluoro-3-phenoxybenzyl meta-halo pyrethrate, a process for preparing the same and the uses thereof” (East China Normal University, priority 2007, dated 2012)", "key": {"[1]": {"tested_on": "Tetrangychus cinnabarinus", "test": "Killing effect on Tetrangychus cinnabarinus, immersion", "type": "in vivo", "details": "after 24 hours", "description": "The killing effect on acarids was tested using Compound 2 and 3, which are representative examples of the compound of formula (I) of the present invention, Compound 9 as a control example. Tetrangychus cinnabarinus, test temperature: 26±1° C. humidity: 70±10%; test method: immersion; adult insects together with horsebean leaves were immersed in a liquor in dimethyl sulfoxide for 5 seconds, after which the leaves were inserted into a small bottle. Each treatment was done in triplicate. The number of the killed insects was checked after 24 hours to calculate the mortality."}, "[2]": {"test": "Acute toxicity on rats by oral administration", "details": "rat, in vivo"}, "Musca domestica": {"tested_on": "Musca domestica", "test": "Striking down effect on Musca domestica, liquid film contact method", "type": "in vivo", "parameters": "unit not given here", "details": "Musca domestica adults, film from 1 ml of 0.1% liquor in acetone in 500 ml conical flask", "description": "The striking down effect on Musca domestica was tested using Compounds 2 and 3, which are representative examples of the compound of formula (I) of the present invention, Compound 9 as a control example. Musca domestica, an in-house cultured sensitive strain, the adult insects in eclosion for 3-5 days were used, and the male and female insects are half and half. Test temperature: 26±1° C., humidity: 70±10%, test method: liquid film contact method. 1 ml of 0.1% liquor in acetone was evenly coated on a 500 ml conical flask to form a film. After the film was dry, 20˜25 adult insects were put into the flask, and the striking down time and striking down number were observed, and each treatment was done in triplicate."}, "Mythimna separata": {"tested_on": "Mythimna separata", "test": "Killing effect on Mythimna separata, dipped corn leaves fed to larvae", "type": "in vivo", "details": "48 h, read-out: The average mortality", "description": "The killing effect on Mythimna separata was tested using Compounds 2 and 3, which are representative examples of the compound of formula (I) of the present invention, Compound 9, polyfluorobenzyl meta-halo pyrethrate, which has the highest insecticidal activity to Mythimna separata as a control example.\nMythimna separata: test temperature: 26±1° C., humidity: 70±10%; the corn leaves was immersed, and then were taken out after they were dipped in a liquor in dimethyl sulfoxide for 5 seconds. The liquor was dried in the shade and the corn leaves were cut away to feed larvae at the beginning of the third instar. Each treatment was done in triplicate. The number of killed insects was counted after 48 hours to calculate the mortality."}, "[3]": {"tested_on": "Culex pipiens pallens fourth instar wiggler", "test": "Killing effect on wiggler, WHO immersing method, LC50", "type": "in vivo", "description": "The following pyrethrates were tested as representatives according to the method recommended by the World Health Organization (WHO) (Zongbing ZHANG, the assay of toxicity of insecticides, the Science Press, 1988), the commonly used testing breed, Culex pipiens pallens fourth instar wiggler is used as a subject for biological assay, test temperature: 26±1° C., humidity: 70±10%; immersing method: a solution of a certain amount the compound to be tested in acetone was mixed evenly with pure water in the gradually decreasing concentration of 500, 250, 100, 50, 25, 12.5, 6.25, 3.125, 1, 0.5, 0.25, 0.1, 0.05, 0.025, 0.01, 0.005, 0.0025, 0.0001 mg/L, and the mortality of wiggler after 24 hours was calculated and LC50 was calculated to preliminarily evaluate the insecticidal activity. The results were shown in Table I. Compound 1-5 are representative examples of the compound of formula (I) of the present invention: the compounds involved in preparation Example 1-5 were prepared;\nAt the same time, their relative toxicities were compared with those of Cypermethrin, and Deltamethrin."}, "Aphis medicaginis kock": {"tested_on": "Aphis medicaginis kock", "test": "Killing effect on aphids, immersion", "type": "in vivo", "details": "Aphis medicaginis, 24 h, read-out: The average mortality", "description": "The killing effect on aphids was tested using Compound 2 and 3, which are representative examples of the compound of formula (I) of the present invention, Compound 9 as a control example. Aphis medicaginis kock; test temperature: 26±1° C., humidity: 70±10%; test method: immersion; adult insects together with bean sprouts were immersed in a liquor in dimethyl sulfoxide for 5 seconds, after which the bean sprouts were heeled in a solid support. Each treatment was done in triplicate. The number of the killed insects was checked after 24 hours to calculate the mortality."}, "Blattela germanica": {"tested_on": "Blattela germanica", "test": "Striking down effect on cockroaches, liquid film contact method", "type": "in vivo", "parameters": "unit not given here", "details": "Blattela germanica male adults, film at 54 mg/m^2, 22±1° C.", "description": "The striking down effect on Blattela germanica was tested using Compound 2 and 3, which are representative examples of the compound of formula (I) of the present invention, Compound 9 as a control example. Blattela germanica, an in-house cultured sensitive strain, male adult insects were used. Test temperature: 22±1° C., test method: liquid film contact method. A liquor in acetone was evenly coated at the amount of 54 mg/m^2 on the inner wall of a wild mouth bottle to form a film. After the film was dry, 10 adult insects were put into each bottle, and the striking down time and striking down number were observed, and each treatment was done in triplicate."}, "[4]": {"test": "Stability test, ultraviolet lamp irradiation, gas chromatography analysis", "type": "physicochemical", "details": "30 min, 3 mM", "description": "0.15 mmol of the compound of Preparation Example 2 (cis-α-cyano-3-phenoxy-4-fluoro-benzyl-2,2-dimethyl-3-(2-chlorovinyl)cyclopropane carboxylate) and 0.15 mmol of the corresponding dichloride compound (cis-α-cyano-3-phenoxy-4-fluoro-benzyl-2,2-dimethyl-3-(2,2-dichlorovinyl)cyclopropane carboxylate) were added to two vessels separately, to which 50 ml of cyclohexane were added separately. They were irradiated by a 500 W ultraviolet lamp for 30 min respectively. Then to each of the vessels were added 0.15 mmol of n-hexane as an internal standard for gas chromatography analysis. […] The photodegradation rate of the former is 1.9 times of that of the latter. That is to say, if the same amounts were used, the residue of the former in the environment is lower than that of the latter."}}, "data": [{"molecule": "CC1(C)[C@H](C=CCl)[C@@H]1C(=O)OC(C#N)c1ccc(F)c(Oc2ccccc2)c1", "note": "(relative stereo) [Compound 2, cis-α-cyano-3-phenoxy-4-fluoro-benzyl-2,2-dimethyl-3-(2-chlorovinyl)cyclopropane carboxylate]", "values": [{"measurement": "The average mortality", "setting": "[1]; 1 mg/L", "value": 0, "unit": "%"}, {"measurement": "The average mortality", "setting": "[1]; 5 mg/L", "value": 11.9, "unit": "%"}, {"measurement": "The average mortality", "setting": "[1]; 50 mg/L", "value": 91.1, "unit": "%"}, {"measurement": "The average mortality", "setting": "[1]; 500 mg/L", "value": 100, "unit": "%"}, {"measurement": "LD50", "setting": "[2]; female", "value": 158, "unit": "mg/kg"}, {"measurement": "LD50", "setting": "[2]; male", "value": 116, "unit": "mg/kg"}, {"measurement": "KT50", "setting": "Musca domestica", "value": 3.49}, {"measurement": "mortality at 0.25 ppm", "setting": "Mythimna separata", "value": 0, "unit": "%"}, {"measurement": "mortality at 0.5 ppm", "setting": "Mythimna separata", "value": 33.3, "unit": "%"}, {"measurement": "mortality at 1 ppm", "setting": "Mythimna separata", "value": 66.7, "unit": "%"}, {"measurement": "mortality at 5 ppm", "setting": "Mythimna separata", "value": 100, "unit": "%"}, {"measurement": "mortality at 50 ppm", "setting": "Mythimna separata", "value": 100, "unit": "%"}, {"measurement": "mortality at 500 ppm", "setting": "Mythimna separata", "value": 100, "unit": "%"}, {"measurement": "relative toxicity versus cypermethrin", "setting": "[3]; Culex pipiens pallen larvae", "value": 22.55, "unit": "times"}, {"measurement": "relative toxicity versus deltamethrin", "setting": "[3]; Culex pipiens pallen larvae", "value": 2.55, "unit": "times"}, {"measurement": "relative toxicity versus the compounds in comparative examples 1-6", "setting": "[3]; Culex pipiens pallen larvae", "value": "125-1128 times"}, {"measurement": "LC50", "setting": "[3]; Culex pipiens, 24 h", "value": 0.47, "unit": "ng/mL"}, {"measurement": "relative toxicity versus deltamethrin, estimated for the single chiral isomer", "setting": "[3]; extrapolated 4*2.55 from the racemate of four chiral isomers", "value": 10, "unit": "times"}, {"measurement": "Relative toxicity", "setting": "[3]; from wiggler LC50, Cypermethrin = 100", "value": 2255}, {"measurement": "mortality at 0.25 ppm", "setting": "Aphis medicaginis kock", "value": 0, "unit": "%"}, {"measurement": "mortality at 0.5 ppm", "setting": "Aphis medicaginis kock", "value": 28.8, "unit": "%"}, {"measurement": "mortality at 1 ppm", "setting": "Aphis medicaginis kock", "value": 84.3, "unit": "%"}, {"measurement": "mortality at 5 ppm", "setting": "Aphis medicaginis kock", "value": 89.5, "unit": "%"}, {"measurement": "mortality at 50 ppm", "setting": "Aphis medicaginis kock", "value": 100, "unit": "%"}, {"measurement": "mortality at 500 ppm", "setting": "Aphis medicaginis kock", "value": 100, "unit": "%"}, {"measurement": "KT50", "setting": "Blattela germanica", "value": 5.12}, {"measurement": "degraded by light", "setting": "[4]", "value": 30, "unit": "%"}, {"measurement": "photodegradation rate relative to the corresponding dichloride compound", "setting": "[4]", "value": 1.9, "unit": "times"}]}]}
